Measurements as given in patent US5416209A, “5,6-dihydro-dibenz[b,e]azepine-6,11-dione-11-oximes” (Bayer Aktiengesellschaft, priority 1991, dated 1995).

These compounds were tested on HIV virus (HIV-infected normal human blood lymphocytes (PBLs) or alternatively H9 cells) (assay: HIV infection in cell culture (inhibition of virus-induced syncytia)). Details: Human immunodeficiency virus 1, 72 h, concentration at which 50% of the virus-induced syncytia are suppressed, day 3 to 6 after infection, 37° C.
Format: cell-based
Experimental: HIV infection in cell culture
The HIV test was carried out with slight modifications according to the method of Pauwels et al. [cf. Journal of Virological Methods 20, (1988), 309-321].
Normal human blood lymphocytes (PBLs) were concentrated by means of Ficoll-Hypaque and stimulated with phytohaemagglutinin (90 μg/ml) and interleukin-2 (40 U/ml) in RPMI 1640 and 20% foetal calf serum. For infection with the infectious HIV, PBLs were pelleted and the cell pellet was then suspended in 1 ml of HIV virus adsorption solution and incubated for 1 hour at 37° C.
Alternatively, HIV-susceptible H9 cells were employed instead of normal human blood lymphocytes for testing the antiviral effects of the compounds according to the invention.
The virus adsorption solution was centrifuged and the infected cell pellet was taken up in growth medium so that a concentration of 1×10^5 cells per ml was established. The cells infected in this way were pipetted into the wells of 96-well microtiter plates to give 1×10^4 cells/well.
The first vertical row of the microtiter plate contained only growth medium and cells which had not been infected, but otherwise treated exactly as described above (cell control). The second vertical row of the microtiter plate contained only HIV-infected cells (virus control) in growth medium. The other wells contained the compounds according to the invention in differing concentrations, starting from the wells of the 3rd vertical row of the microtiter plate, from which the test substances were diluted 2^10 times in 2-fold steps.
The test batches were incubated at 37° C. until, in the untreated virus control, the syncytia formation typical of HIV occurred (between day 3 and 6 after infection), which was then microscopically assessed. Under these test conditions, in the untreated virus control about 20-50 syncytia resulted, while the untreated cell control contained no syncytia.
The IC50 values were determined as the concentration of the treated and infected cells at which 50% (about 10-20 syncytia) of the virus-induced syncytia were suppressed by treatment with the compound according to the invention.
For `COC(=O)CON=c1c2cc(Cl)ccc2[nH]c(=O)c2ccccc12` [Example 24], the IC50 was 2.3 µM.
`O=c1[nH]c2ccc(Cl)cc2c(=NOC2CCCCO2)c2ccccc12` (centres unmarked) [Example 31] showed an IC50 of 0.25 µM.
Compound `CON=c1c2cc(Cl)ccc2[nH]c(=O)c2ccccc12` [Example 6] has an IC50 of 1.5 µM.
With `CCO/N=c1\c2cc(Cl)ccc2[nH]c(=O)c2ccccc12` [Example 8] the IC50 was 0.5 µM.
For `O=c1[nH]c2ccc(Cl)cc2c(=NOCc2ccccc2)c2ccccc12` [Example 17], the IC50 was 0.7 µM.
With `O=c1[nH]c2ccc(Cl)cc2c(=NOCc2c(F)c(F)c(F)c(F)c2F)c2ccccc12` [Example 18] the IC50 was 1 µM.
`Cc1ccnc2c1NC(=O)c1cccnc1N2C1CC1` [BIRG 587, reference compound] gave an IC50 of 0.09 µM.
With `CCO/N=c1/c2cc(Cl)ccc2[nH]c(=O)c2ccccc12` [Example 4, (E) -2-Chloro-11-ethoxyimino-6-oxo-5,6-dihydro-11-H-dibenz [b,e]azepine] the IC50 was 0.06 µM.
